Data on 15 compounds can be found in PubChem BioAssay (NCI).

Common to all, as to assay: NCI tumour cell line growth inhibition, 48 h
Experiment [1] relates to A498 renal.
Experiment [2] has as its system ACHN renal.
Experiment [3] relates to EKVX NSCLC.
Experiment [4] relates to MCF7 breast.
In experiment [5] the test system is NCI-H460 lung.
For experiment [6], the system named is RPMI-8226 leukemia.
The subject of experiment [7] is SK-MEL-2 melanoma.
In experiment [8] the test system is SK-MEL-28 melanoma.
The subject of experiment [9] is UACC-257 melanoma.
In experiment [10] the test system is UACC-62 melanoma.

Values joined by “and” are separate entries in the source; they are usually repeats but may differ in a detail not shown here. Equal values may be shown once.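 The compound was tested at five concentrations on cells cultured in 96-well plates, with a 48-hour exposure period. Here, GI50 denotes the concentration required for 50% inhibition of growth. TGI: total growth inhibition.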

Take `O=C(Nc1nc2ccc(F)cc2s1)c1cccnc1Nc1ccc(Cl)cc1Cl`: the GI50 in experiment [1] is 2.13 µM; in experiment [2], 3.35 µM; in experiment [3], 2.02 µM; in experiment [4], 2.73 µM; in [5] it was 2.67 µM; in experiment [6], 1.49 µM. In addition, the GI50 in experiment [7] was 3.3 µM; in experiment [8], 3.69 µM; in [9], 0.753 µM; in experiment [10], 2.57 µM. In addition, the TGI was 6.84 µM in [1]; 13.7 µM in experiment [2]; 16 µM in experiment [3]; 13 µM in [4]; 12.4 µM in experiment [5]; 9.07 µM in experiment [6]. In addition, the TGI in experiment [7] is above 26.2 µM; in [8], 18.6 µM; in [9] it was 7.73 µM; in [10], 17.2 µM.

As to `CC(=O)c1c(Nc2ccc(F)c(F)c2F)[nH]c2c(F)cc(F)cc2c1=O`, the GI50 was 0.206 µM in [1]; 0.296 µM in [2]; 0.303 µM in [3]; 0.283 µM in experiment [4]; 0.331 µM in experiment [5]; 0.206 µM in [6]. In addition, the GI50 was 0.322 µM in [7], 0.356 µM in experiment [8], 0.338 µM in experiment [9] and 0.233 µM in [10]. Besides, the TGI is 0.575 µM in experiment [1]; above 26.3 µM in experiment [2]; above 40.4 µM in [3]; 13.5 µM in experiment [4]; 11.2 µM in [5]; 0.72 µM in [6]. For the same compound, the TGI in experiment [7] turned out to be 1.35 µM; in [8], 3.57 µM; in [9] it was 10 µM; in [10] it was 0.836 µM.

As for `Cc1cc2c(-c3nc4ccccn4c3NC34CC5CC(CC(C5)C3)C4)c(O)c(O)cc2c(O)c1-c1c(C)cc2c(-c3nc4ccccn4c3NC34CC5CC(CC(C5)C3)C4)c(O)c(O)cc2c1O`, the GI50 in [1] is 0.817 µM; in experiment [2] it was 0.785 µM; in experiment [3], 0.454 µM; in experiment [4], 0.175 µM; in experiment [5] it was 0.0903 µM; in [6], 0.355 µM. Besides, the GI50 was 0.802 µM in [7], 0.459 µM in [8], 1 µM in experiment [9] and 0.521 µM in [10]. Besides, the TGI is above 25 µM in [1]; 2.88 µM in experiment [2]; above 25 µM in experiment [3]; 4.28 µM in [4]; 2.1 µM in experiment [5]; above 25 µM in [6]. For the same compound, the TGI in [7] is 6.25 µM; in experiment [8], 4.69 µM; in [9], above 25 µM; in [10] it was 1.91 µM.

For the compound `COc1ccc(-c2nn(-c3cccc(Cl)c3)cc2-c2cc(-c3cccs3)no2)cc1`, the GI50 in [1] is 1.81 µM; in experiment [2] it was 4.39 µM; in experiment [3], 2.07 µM; in [4] it was 3.53 µM; in experiment [5], 3.42 µM; in experiment [6], 5.33 µM. Besides, the GI50 in experiment [7] is 3.34 µM; in experiment [8], 4.93 µM; in experiment [9] it was 3.07 µM; in experiment [10] it was 3.55 µM. Besides, the TGI was 14.6 µM in experiment [1]; above 100 µM in [2]; 13.5 µM in experiment [3]; 16.9 µM in experiment [4]; 16.6 µM in experiment [5]; 61.9 µM in experiment [6]. In addition, the TGI in experiment [7] worked out at 10.9 µM; in experiment [8], 17.8 µM; in experiment [9] it was 15.1 µM; in [10], 20 µM.

On to `COc1cc(/C=C2\C(=O)Nc3ccc(Br)cc32)cc(OC)c1OC`, for which the GI50 in [1] is 13.7 µM; in [2] it was 31.9 µM; in experiment [3], 14.3 µM; in experiment [4], 2.64 µM; in experiment [5], 8.76 µM; in experiment [6], 1.31 µM. Also, the GI50 in experiment [7] is 12.9 µM; in experiment [8], 58.9 µM; in experiment [9], above 50.7 µM; in experiment [10], 5.96 µM. In addition, the TGI in [1] is above 55.8 µM; in experiment [2] it was above 100 µM; in experiment [3] it was above 100 µM; in experiment [4], above 100 µM; in [5], above 100 µM; in experiment [6], above 41.8 µM. In addition, the TGI in experiment [7] was 55.2 µM; in [8], above 100 µM; in experiment [9], above 100 µM; in experiment [10] it was above 100 µM.

With `N=C(N)SCC(=O)O`, the TGI in [1], in experiment [2], in experiment [3], in [4], in experiment [5] and in [6] was above 100 µM in each case. Moreover, the TGI in experiment [7], in experiment [8], in experiment [9] and in experiment [10] was above 100 µM throughout.

Take `CCOC(=O)C(=Cc1c(-c2ccccc2)[nH]c2ccccc12)C(=O)OCC`: the GI50 in experiment [1] was 15.8 µM; in [2], 4.34 µM; in experiment [3] it was 10.8 µM; in experiment [4] it was 4.49 µM; in [5] it was 3.75 µM; in experiment [6], 0.219 µM. For the same compound, the GI50 in experiment [7] is 4.6 µM; in [8], 7.4 µM; in [9] it was 7.33 µM; in [10] it was 4.64 µM. The TGI in [1] amounted to 55.6 µM; in experiment [2], 23.6 µM; in [3], 54.1 µM; in [4] it was 18 µM; in [5] it was 13.6 µM; in experiment [6] it was 3.28 µM. Besides, the TGI came out at 17.3 µM in [7], 21.6 µM in [8], 19.3 µM in experiment [9] and 21.7 µM in experiment [10].

For `C/C(N=NC(=S)N1CCCCCC1)=C1\C=CC=CN1O`, the TGI in experiment [1] is 92.1 µM; in [2] it was 67.6 µM; in experiment [3] it was above 94.4 µM; in [4] it was above 100 µM; in [5], 31.3 µM; in experiment [6] it was 11.1 µM. The TGI in experiment [7] was 18.8 µM; in experiment [8], above 96.3 µM; in experiment [9], 10.9 µM; in [10] it was 24.6 µM.

In the case of `CC(C)c1ccc2c(c1)c(SC(C)(C)C)c(CC(C)(C)C(=O)O)n2Cc1ccc(Cl)cc1`, the GI50 is 10.8 µM in [1]; 11.6 µM in [2]; 4.42 µM in [3]; 5.14 µM in experiment [4]; 4.23 µM in [5]; 5.17 µM in experiment [6]. Besides, the GI50 is 7.5 µM in experiment [7], 11.3 µM in experiment [8], 11 µM in [9] and 11.8 µM in experiment [10]. For the same compound, the TGI amounted to 23.3 µM in experiment [1]; 24.3 µM in experiment [2]; 13 µM in [3]; 19.4 µM in [4]; 16.2 µM in experiment [5]; 41.8 µM in experiment [6]. Moreover, the TGI in [7] is 20.1 µM; in experiment [8] it was 25.1 µM; in [9] it was 24.7 µM; in experiment [10], 24 µM.

For `COc1ccc(-c2nn3ncccc3c2-c2ccnc(Nc3cccc(C(F)(F)F)c3)n2)cc1`, the GI50 in experiment [1] was 4.41 µM; in experiment [2], 6.7 µM; in experiment [3], 6.69 µM; in [4], 7.42 µM; in experiment [5] it was 7.62 µM; in experiment [6] it was 7.67 µM. Further, the GI50 in [7] is 8.11 µM; in experiment [8] it was 16.7 µM; in experiment [9], 9.34 µM; in experiment [10] it was 7.86 µM. Also, the TGI was above 20.3 µM in [1]; above 25 µM in experiment [2]; above 25 µM in experiment [3]; above 25 µM in [4]; above 25 µM in experiment [5]; above 25 µM in experiment [6]. The TGI in experiment [7] is 21.3 µM; in experiment [8], above 25 µM; in experiment [9] it was above 25 µM; in experiment [10], above 25 µM.

`COc1ccc2c(c1)c(-c1cc(-c3cn(C)c4ccc(OC)cc34)[nH]n1)cn2C`: the GI50 in [1], in experiment [2], in [3], in experiment [4], in experiment [5] and in [6] was above 100 µM each time. Moreover, the GI50 in experiment [7], in experiment [8], in experiment [9] and in experiment [10] was above 100 µM throughout. The TGI in experiment [1], in experiment [2], in [3], in experiment [4], in [5] and in experiment [6] was above 100 µM each time. Also, the TGI in experiment [7], in [8], in [9] and in experiment [10] was above 100 µM in each case.

`Fc1ccc(-c2cc(-c3cn[nH]c3-c3ccccn3)ccn2)cc1`: the GI50 was 24.8 µM in [1]; above 25 µM in experiment [2]; above 25 µM in experiment [3]; above 25 µM in experiment [4]; 24.7 µM in experiment [5]; above 25 µM in experiment [6]. In addition, the GI50 in experiment [7], in experiment [8], in [9] and in [10] was above 25 µM throughout. The TGI in [1], in experiment [2], in experiment [3], in experiment [4], in [5] and in experiment [6] was above 25 µM throughout. Also, the TGI in [7], in [8], in experiment [9] and in experiment [10] was above 25 µM throughout.

On to `Cc1nnc(N=Nc2c(O)[nH]c3ccccc23)[nH]c1=O`, for which the TGI in experiment [1], in experiment [2], in experiment [3], in [4], in [5] and in [6] was above 100 µM in each case. For the same compound, the TGI in experiment [7], in [8], in experiment [9] and in experiment [10] was above 100 µM throughout.

As to `C=C[C@@]1(C)CC(=O)[C@]2(O)[C@@]3(C)[C@@H](O)CCC(C)(C)[C@@H]3[C@H](O)[C@@H](OC(C)=O)[C@@]2(C)O1`, the TGI is above 100 µM in experiment [1]; above 100 µM in experiment [2]; above 100 µM in [3]; above 100 µM in experiment [4]; above 100 µM in experiment [5]; 95.4 µM in [6]. Also, the TGI in experiment [7], in [8], in [9] and in experiment [10] was above 100 µM each time.

On to `Oc1cccc(-c2nc(N3CCOCC3)c3oc4ncccc4c3n2)c1`, for which the GI50 was 1.96 µM in [1]; 0.0878 µM and 0.164 µM in [2]; 0.213 µM in experiment [3]; 0.27 µM and 0.18 µM in [4]; 0.359 µM and 0.419 µM in experiment [5]; 0.237 µM and 0.298 µM in experiment [6]. The GI50 is 0.147 µM and 0.295 µM in [7]; 0.152 µM and 0.0882 µM in [8]; 0.593 µM and 0.421 µM in experiment [9]; 1.05 µM and 0.471 µM in [10]. Further, the TGI in [1] was 9.35 µM and 3.98 µM; in experiment [3] it was 0.82 µM; in [4], > 100 µM and 11.9 µM; in experiment [5] it was above 100 µM; in experiment [6], above 38.3 µM; in experiment [7] it was 0.641 µM and 1.92 µM. Besides, the TGI was 2.22 µM in experiment [8]; 3.39 µM and 3.79 µM in [9]; 3.03 µM and 1.64 µM in [10].
